Our source for the IC50 values is patent publication US20250163104A1, “MACROCYCLIC IMMUNOMODULATORS” (priority 2021, published 2025).

SMILES strings stand for the structures. Where a SMILES comes first, the peptide text is derived from it. Bridges are numbered along the chain shown (N, C = ends). [ ]: non-standard residue; d: D form. The star is where a group is joined. ξ: configuration not given here. Phe(4-CONH2) = NC(=O)c1ccc(C[C@H](N)C(=O)O)cc1; Phe(4-COOH) = N[C@@H](Cc1ccc(C(=O)O)cc1)C(=O)O; Bip = N[C@@H](Cc1ccc(-c2ccccc2)cc1)C(=O)O; Phe(3-F) = N[C@@H](Cc1cccc(F)c1)C(=O)O; Phe(3-Me) = Cc1cccc(C[C@H](N)C(=O)O)c1; Val(3-OH) = CC(C)(O)[C@H](N)C(=O)O; 4Pal = N[C@@H](Cc1ccncc1)C(=O)O; Cha = N[C@@H](CC1CCCCC1)C(=O)O; Thr(3ξ) = CC(O)[C@H](N)C(=O)O; Carboxymethyl = O=C(O)C*; Orn = NCCC[C@H](N)C(=O)O; Dab = NCC[C@H](N)C(=O)O; Dap = NC[C@H](N)C(=O)O; Ac3c = NC1(C(=O)O)CC1

The IC50 is the concentration that inhibits the measured activity by half.

The target in this assay is T1, human PD-1 / PD-L1-Ig binding on Jurkat cell line over-expressing human PD-1 (Jurkat-PD-1) (Homo sapiens, UniProt Q15116).
T1 construct: expressed in transfected cells; host or cells: Jurkat
Kind of assay: Jurkat-PD-1 Cell Binding High-Content Screening Assay (CBA). Format: cell-based. Particulars: Jurkat-PD-1 cells, PE-labeled PD-L1-Ig 20 nM final; read-out: Jurkat HPD1_PDL1 IC50. In short, it runs like this:
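Cell-bound PE-labeled PD-L1-Ig (20 nM final, 1 h) measured by high-content imaging after fixation and Hoechst 33342 counterstain. Compound was applied first for 2 h at 37° C. to Jurkat cells over-expressing human PD-1 in DMEM with 10% FCS.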

T1 sequence (Q15116 25-288): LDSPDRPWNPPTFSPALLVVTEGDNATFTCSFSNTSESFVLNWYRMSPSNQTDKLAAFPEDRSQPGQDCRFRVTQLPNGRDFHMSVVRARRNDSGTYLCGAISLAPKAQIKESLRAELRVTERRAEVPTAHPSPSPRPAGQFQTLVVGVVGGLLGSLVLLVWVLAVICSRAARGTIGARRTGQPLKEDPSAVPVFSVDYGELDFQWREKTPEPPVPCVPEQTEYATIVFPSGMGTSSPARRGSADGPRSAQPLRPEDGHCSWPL

Regarding `CC(C)C[C@H]1NC(=O)[C@H](CCCN)NC(=O)[C@H](C(C)C)NC(=O)[C@H](Cc2ccc(-c3ccccc3)cc2)NC(=O)[C@H](C(C)C)NC(=O)[C@H](Cc2c[nH]c3ccccc23)NC(=O)[C@H](CC(=O)O)NC(=O)[C@H](Cc2ccc(C(=O)O)cc2)NC(=O)[C@H](Cc2ccc(OCC(=O)O)cc2)NC(=O)CSC[C@@H](C(=O)N[C@@H](C)C(N)=O)NC(=O)[C@H](CCCCN)NC(=O)[C@H](C(C)C)NC(=O)[C@H](CC2CCCCC2)NC(=O)[C@H](CCN)NC1=O` [Compound 1745] ({CH2CO}-Y(Carboxymethyl)[Phe(4-COOH)]DWV[Bip]V[Orn][dL][Dab][Cha]VKCA-NH2; thioether N-14), the IC50 was 4 nM.
For the compound `CC(C)C[C@@H]1NC(=O)[C@H](CCCCN)NC(=O)[C@@H](CC(C)C)NC(=O)[C@H](CCN)NC(=O)[C@H](Cc2cnc[nH]2)NC(=O)[C@H](Cc2ccc(-c3ccccc3)cc2)NC(=O)[C@H](C(C)C)NC(=O)[C@H](Cc2c[nH]c3ccccc23)NC(=O)[C@H](CC(=O)O)NC(=O)[C@H](Cc2ccc(O)cc2)NC(=O)[C@H](CC(N)=O)NC(=O)CSC[C@@H](C(=O)NCC(N)=O)NC(=O)[C@H](CO)NC(=O)[C@H](C(C)C)NC1=O` [Compound 1139] ({CH2CO}-NYDWV[Bip]H[Dab][dL]KLVSCG-NH2; thioether N-14), the IC50 worked out at 44.4 nM.
For `CC[C@H](C)[C@@H]1NC(=O)[C@H](Cc2ccc(-c3ccccc3)cc2)NC(=O)[C@H](C(C)C)NC(=O)[C@H](Cc2cccc(Cl)c2)NC(=O)[C@H](CC(=O)O)NC(=O)[C@H](Cc2ccncc2)NC(=O)[C@H](CN)NC(=O)CSC[C@@H](C(=O)N[C@@H](C)C(N)=O)NC(=O)[C@H]([C@@H](C)O)NC(=O)[C@H](C(C)C)NC(=O)[C@H](CC2CCCCC2)NC(=O)[C@H](CCN)NC(=O)[C@@H](CC(C)C)NC(=O)[C@H](CCCN)NC1=O` [Compound 1562] the value was 20.2 nM.
For `Cc1cccc(C[C@@H]2NC(=O)[C@H](CC(=O)O)NC(=O)[C@H](Cc3ccc(OCC(=O)O)cc3)NC(=O)[C@H](C(C)O)NC(=O)CSC[C@@H](C(=O)N[C@@H](CCN)C(N)=O)NC(=O)[C@H](CO)NC(=O)[C@H](C(C)(C)O)NC(=O)[C@H](CC3CCCCC3)NC(=O)[C@H](CCN)NC(=O)[C@@H](CC(C)C)NC(=O)[C@H](CCCN)NC(=O)[C@H](Cc3ccc(OCC(=O)O)cc3)NC(=O)[C@H](Cc3ccc(-c4ccccc4)cc3)NC(=O)[C@H](Cc3ccc(C(=O)O)cc3)NC2=O)c1` (stereo partly drawn) [Compound 2634] ({CH2CO}-[Thr(3ξ)]Y(Carboxymethyl)D[Phe(3-Me)][Phe(4-COOH)][Bip]Y(Carboxymethyl)[Orn][dL][Dab][Cha][Val(3-OH)]SC[Dab]-NH2; thioether N-14) the value was 4.7 nM.
The same measure for `Cc1cccc(C[C@@H]2NC(=O)[C@H](CC(=O)O)NC(=O)[C@H](Cc3ccc(OCC(=O)O)cc3)NC(=O)[C@H]([C@@H](C)O)NC(=O)CSC[C@@H](C(=O)NC3(C(N)=O)CC3)NC(=O)[C@H](CO)NC(=O)[C@H](C(C)C)NC(=O)[C@H](CC3CCCCC3)NC(=O)[C@H](CCN)NC(=O)[C@@H](CC(C)C)NC(=O)[C@H](CCCN)NC(=O)[C@H](Cc3ccc(OCC(=O)O)cc3)NC(=O)[C@H](Cc3ccc(-c4ccccc4)cc3)NC(=O)[C@H](Cc3ccc(OCC(=O)O)cc3)NC2=O)c1` [Compound 2065] ({CH2CO}-TY(Carboxymethyl)D[Phe(3-Me)]Y(Carboxymethyl)[Bip]Y(Carboxymethyl)[Orn][dL][Dab][Cha]VSC[Ac3c]-NH2; thioether N-14): 19.5 nM; for `CC(C)C[C@H]1NC(=O)[C@H](CCCN)NC(=O)[C@H](C(C)C)NC(=O)[C@H](Cc2ccc(-c3ccccc3)cc2)NC(=O)[C@H](C(C)C)NC(=O)[C@H](Cc2c[nH]c3ccccc23)NC(=O)[C@H](CC(=O)O)NC(=O)[C@H](Cc2ccc(OCC(=O)O)cc2)NC(=O)[C@H](Cc2ccc(OCC(=O)O)cc2)NC(=O)CSC[C@@H](C(=O)N[C@@H](C)C(N)=O)NC(=O)[C@H]([C@@H](C)O)NC(=O)[C@H](C(C)C)NC(=O)[C@H](Cc2cccc(F)c2)NC(=O)[C@H](CCN)NC1=O` [Compound 1674] ({CH2CO}-Y(Carboxymethyl)Y(Carboxymethyl)DWV[Bip]V[Orn][dL][Dab][Phe(3-F)]VTCA-NH2; thioether N-14): 16.9 nM.
As for `CC(C)C[C@@H]1NC(=O)[C@H](Cc2c[nH]c3ccccc23)NC(=O)[C@H](CC(=O)O)NC(=O)[C@H](Cc2ccc(O)cc2)NC(=O)[C@H](Cc2ccccc2)NC(=O)CSC[C@@H](C(=O)NCC(N)=O)NC(=O)[C@H](CO)NC(=O)[C@H](C(C)C)NC(=O)[C@H](CC(C)C)NC(=O)[C@H](CCN)NC(=O)[C@@H](C)NC(=O)[C@H](CN)NC(=O)[C@H](C(C)C)NC(=O)[C@H](Cc2ccc(-c3ccccc3)cc2)NC1=O` [Compound 1098] ({CH2CO}-FYDWL[Bip]V[Dap][dA][Dab]LVSCG-NH2; thioether N-14), the IC50 stood at 115 nM.
For `Cc1cccc(C[C@@H]2NC(=O)[C@H](CC(=O)O)NC(=O)[C@H](Cc3ccc(C(=O)O)cc3)NC(=O)[C@H](Cc3ccncc3)NC(=O)CSC[C@@H](C(=O)N[C@@H](CCN)C(N)=O)NC(=O)[C@H]([C@@H](C)O)NC(=O)[C@H](C(C)C)NC(=O)[C@H](CC3CCCCC3)NC(=O)[C@H](CCN)NC(=O)[C@@H](CC(C)C)NC(=O)[C@H](CCCN)NC(=O)[C@H](Cc3ccc(O)cc3)NC(=O)[C@H](Cc3ccc(-c4ccccc4)cc3)NC(=O)[C@H](C(C)C)NC2=O)c1` [Compound 2292] ({CH2CO}-[4Pal][Phe(4-COOH)]D[Phe(3-Me)]V[Bip]Y[Orn][dL][Dab][Cha]VTC[Dab]-NH2; thioether N-14), the concentration for half-maximal inhibition (IC50) came out at 18.4 nM.
Consider `Cc1cccc(C[C@@H]2NC(=O)[C@H](CC(=O)O)NC(=O)[C@H](Cc3ccc(OCC(=O)O)cc3)NC(=O)[C@H](Cc3ccncc3)NC(=O)CSC[C@@H](C(=O)N[C@@H](CCN)C(N)=O)NC(=O)[C@H](CO)NC(=O)[C@H](C(C)(C)O)NC(=O)[C@H](CC3CCCCC3)NC(=O)[C@H](CCN)NC(=O)[C@@H](CC(C)C)NC(=O)[C@H](CCCN)NC(=O)[C@H](Cc3ccc(O)cc3)NC(=O)[C@H](Cc3ccc(-c4ccccc4)cc3)NC(=O)[C@H](Cc3ccc(C(N)=O)cc3)NC2=O)c1` [Compound 2623] ({CH2CO}-[4Pal]Y(Carboxymethyl)D[Phe(3-Me)][Phe(4-CONH2)][Bip]Y[Orn][dL][Dab][Cha][Val(3-OH)]SC[Dab]-NH2; thioether N-14), for which the IC50 was found to be 4.6 nM.
The same measure for `CC(C)C[C@@H]1NC(=O)[C@H](Cc2c[nH]c3ccccc23)NC(=O)[C@H](CC(=O)O)NC(=O)[C@H](Cc2ccc(O)cc2)NC(=O)[C@H](Cc2ccccc2)NC(=O)CSC[C@@H](C(=O)NCC(N)=O)NC(=O)[C@H]([C@@H](C)O)NC(=O)[C@H](C(C)C)NC(=O)[C@H](CC(C)C)NC(=O)[C@H](CCN)NC(=O)[C@@H](CC(C)C)NC(=O)[C@H](CCN)NC(=O)[C@H](C(C)C)NC(=O)[C@H](Cc2ccc(-c3ccccc3)cc2)NC1=O` [Compound 1060] ({CH2CO}-FYDWL[Bip]V[Dab][dL][Dab]LVTCG-NH2; thioether N-14): 16.4 nM.
The same measure for `CC(C)C[C@@H]1NC(=O)[C@H](Cc2c[nH]c3ccccc23)NC(=O)[C@H](CC(=O)O)NC(=O)[C@H](Cc2ccc(O)cc2)NC(=O)[C@H](Cc2ccccc2)NC(=O)CSC[C@@H](C(=O)N[C@@H](C)C(N)=O)NC(=O)[C@H](CO)NC(=O)[C@H](C(C)C)NC(=O)[C@H](CC(C)C)NC(=O)[C@H](CC(N)=O)NC(=O)[C@@H](C)NC(=O)[C@H](CCCN)NC(=O)[C@H](C(C)C)NC(=O)[C@H](Cc2ccc(-c3ccccc3)cc2)NC1=O` [Compound 1108] ({CH2CO}-FYDWL[Bip]V[Orn][dA]NLVSCA-NH2; thioether N-14): 42.5 nM.
